Reference: US20170099837A1, “EXTRACTS OF AGRICULTURAL HUSKS USED TO MODIFY THE METABOLISM OF PLANTS” (priority 2014, published 2017)

Legend:
[1] = tested on: Daphnia magna; test: 48-h static toxicity test on Daphnia magna; conditions: in vivo
Method: In contrast, pure nitrated phenolic compounds such as p-nitrofenol show toxicities up to 125 times higher, measured as mean lethal concentration (CL50) over Daphnia magna or as concentration without observed effect (CSEO by its Spanish acronym).
The study was carried out to determine composition toxicity on Daphnia magna in a 48-h static test. Test concentrations were determined through a range test. Concentrations used for the definitive test were 62.5, 125, 250, 500 and 1000 mg/L, administered to the system, Daphnia magna, in fresh water. Three copies of 10 organisms were used for each concentration test. Control containers were used, placing 10 daphnides in fresh water without the composition. Dissolved oxygen, temperature, conductivity and pH were assessed at the beginning of the test and after each dose. Observations for immobility were made daily in a test chamber. The test ended after 48±1 hour of exposure. The concentration without observed effect (CSEO) of the composition was 250 mg/L and CE50 (Mean Effective Concentration) was determined higher than 1000 mg/L.

[2] = tested on: pepper bell seedlings; test: Protection of pepper bell seedlings exposed to saline stress
Method: Protection offered by the composition in plants exposed to saline stress was observed through an assay with pepper bell seedlings, cultivar “npiter”. These seedlings were placed in germination plates with peat-moss as substrate and kept during a 40-day period and then transferred to 5-L pots. Adaptation period before treatment commencement consisted of daily irrigation during 10 days reaching saturation by a nutrient formulation based on 100-50-100 N-P-K at 1 mg/L concentrations. Used treatments in the assay were prepared in 100 L containers where NaCl was added until reaching a concentration of 25 mM/L, plus nutrients based on Hoagland formula (50% of its concentration). Irrigation frequency with this nutrient solution was every day, applying a 350 cm^3 volume per plant during the whole assay. Composition application was carried out once per week at a dose of […]. Based on a daily irrigation volume of 350 mL/plant, weekly application of the composition was 0.6 cm^3 per 7 days in 350 cm^3 of irrigation water per plant.

[3] = 25 mM NaCl irrigation, composition 0.6 mL per plant per day applied weekly

SMILES	toxicity relative to the composition, measured as mean lethal concentration (CL50) over Daphnia magna or as CSEO [1]	Foliar area (cm^2/plant) [2, 3]	Leaves per plant [2, 3]	reduction of number of leaves per plant ([2]; treatment with 25 mM NaCl)
O=[N+]([O-])c1ccc(O)cc1 [p-nitrofenol]	up to 125 times higher	–	–	–
[Cl-].[Na+] [25 mM NaCl, NaCl]	–	1050 cm^2/plant	50	about 27%
